Calls of active or inactive are those of the source.
Key:
[1] = target: COUP transcription factor 2 (Homo sapiens, UniProt P24468); test: Luminescence-based cell-based high throughput dose response assay to identify inhibitors of COUP-TFII (NR2F2).; assay type: functional;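 also: HEK293 cells transiently cotransfected with COUP-TFII expression vector and reporter; luciferase reporter luminescence driven by COUP-TFII from the pX2-168 reporter plasmid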
[2] = A2780 cell killing – plate reader, dry powder samples, cytotoxicity control, dose response (AID 743046); assay type: functional, cell-based
[3] = reduced cellular PGC1a acetyl-lysine signal – cell-based, cherry-picked samples, dose response (AID 720514); assay type: functional;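 also: potency may reflect raised or lowered acetylation signal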
[4] = OVCAR-3 cell viability loss – plate reader, dry powder samples, PAX8 inhibitor project, dose response (AID 743044); assay type: functional, cell-based
[5] = IGROV1 cell killing – plate reader, dry powder samples, PAX8 inhibitor project, dose response (AID 743043); assay type: functional, cell-based; details: IGROV-1
[6] = OVCAR8 cell viability loss – plate reader, dry powder samples, PAX8 project, dose response (AID 743197); assay type: functional, cell-based; details: OVCAR-8
[7] = HGIII-sPLA2 enzyme inhibition potency – biochemical, QFRET, IC50, dose response (AID 743457);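 also: green fluorescence rise as the enzyme cleaves BODIPY PC-A2 in liposomes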
Kallikrein-7 = Kallikrein-7 (Homo sapiens, UniProt P49862); test: Fluorescence Intensity-based biochemical primary high throughput dose response assay to identify activators of kallikrein-7 (K7) zymogen.
Kallikrein-7, sequence (P49862 whole entry, the tested form may be a part): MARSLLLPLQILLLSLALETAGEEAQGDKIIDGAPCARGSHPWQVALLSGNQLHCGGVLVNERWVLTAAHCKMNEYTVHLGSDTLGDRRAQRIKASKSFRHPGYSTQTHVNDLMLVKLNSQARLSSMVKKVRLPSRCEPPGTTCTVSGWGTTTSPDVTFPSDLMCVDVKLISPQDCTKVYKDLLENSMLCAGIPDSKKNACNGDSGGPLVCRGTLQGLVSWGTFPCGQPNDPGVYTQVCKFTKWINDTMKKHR

[8] = target: Oxysterols receptor LXR-beta (Homo sapiens, UniProt P55055); assay type: functional, cell-based;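 also: agonist activity at LXR measured by a cell-based luminescence readout across a dose range, run as a counterscreen for daf-12 agonists; HEK293 cells with Gal4-LXR fusion and GAL4-driven luciferase reporter; potency for activation of Gal4-LXR reporter so compounds are agonists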
Oxysterols receptor LXR-beta, sequence (P55055 whole entry, the tested form may be a part): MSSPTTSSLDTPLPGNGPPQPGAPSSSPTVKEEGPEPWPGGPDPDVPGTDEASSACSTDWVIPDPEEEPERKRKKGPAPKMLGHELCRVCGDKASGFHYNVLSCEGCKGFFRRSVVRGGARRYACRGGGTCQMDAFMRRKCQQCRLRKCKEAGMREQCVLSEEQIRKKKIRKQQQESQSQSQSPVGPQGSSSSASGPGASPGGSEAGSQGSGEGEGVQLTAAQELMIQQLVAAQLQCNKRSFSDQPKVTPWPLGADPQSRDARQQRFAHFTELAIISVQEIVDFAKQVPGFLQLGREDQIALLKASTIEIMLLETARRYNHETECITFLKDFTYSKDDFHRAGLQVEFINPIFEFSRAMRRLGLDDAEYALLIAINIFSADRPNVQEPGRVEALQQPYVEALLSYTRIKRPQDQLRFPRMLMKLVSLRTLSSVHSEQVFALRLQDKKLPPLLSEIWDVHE

[9] = NIH-3T3 fibroblast cytotoxicity, dose response, cytotoxicity control, cell-based, fluorescence, Alamar Blue, secondary assay (AID 2327); assay type: functional;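 also: NIH-3T3 mouse fibroblasts cultured with fluconazole at 8 µg/mL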
[10] = fluconazole-exposed Candida albicans growth modulators – fluorescence, retest, confirmation (AID 2467); assay type: functional, cell-based
Paired box protein Pax-8 = Paired box protein Pax-8 (Homo sapiens, UniProt Q06710); test: PAX8 transcriptional activity inhibition in RMG-I – RMG-I cells, luciferase, cherry-pick, dose response (AID 687027); assay type: functional, cell-based;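 also: luciferase reporter driven by Pax8 target thyroperoxidase promoter measured by SteadyGlo luminescence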
Paired box protein Pax-8, sequence (Q06710 whole entry): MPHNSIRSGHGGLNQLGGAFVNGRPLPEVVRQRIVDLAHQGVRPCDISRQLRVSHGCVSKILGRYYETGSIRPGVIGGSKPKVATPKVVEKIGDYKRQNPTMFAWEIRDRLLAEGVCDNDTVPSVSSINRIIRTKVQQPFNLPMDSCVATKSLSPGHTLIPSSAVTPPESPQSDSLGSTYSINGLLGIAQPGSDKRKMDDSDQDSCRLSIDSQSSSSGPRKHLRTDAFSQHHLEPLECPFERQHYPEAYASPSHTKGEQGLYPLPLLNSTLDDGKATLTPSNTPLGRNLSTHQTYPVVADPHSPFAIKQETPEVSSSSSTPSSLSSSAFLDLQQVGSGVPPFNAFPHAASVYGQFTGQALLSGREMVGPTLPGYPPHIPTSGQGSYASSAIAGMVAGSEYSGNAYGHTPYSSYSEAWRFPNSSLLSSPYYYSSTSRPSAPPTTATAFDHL

[11] = general cell-killing toxicity readout – plate reader, dry powder samples, cytotoxicity control for PAX8 inhibitor project, dose response (AID 743021); assay type: functional, cell-based
Beta-galactosidase = Beta-galactosidase (Escherichia coli, UniProt Q8VNN2); test: Dose response counterscreen for EBI2 assay utilizing the enzyme, b-galactosidase.; assay type: functional
Beta-galactosidase, sequence (Q8VNN2 whole entry): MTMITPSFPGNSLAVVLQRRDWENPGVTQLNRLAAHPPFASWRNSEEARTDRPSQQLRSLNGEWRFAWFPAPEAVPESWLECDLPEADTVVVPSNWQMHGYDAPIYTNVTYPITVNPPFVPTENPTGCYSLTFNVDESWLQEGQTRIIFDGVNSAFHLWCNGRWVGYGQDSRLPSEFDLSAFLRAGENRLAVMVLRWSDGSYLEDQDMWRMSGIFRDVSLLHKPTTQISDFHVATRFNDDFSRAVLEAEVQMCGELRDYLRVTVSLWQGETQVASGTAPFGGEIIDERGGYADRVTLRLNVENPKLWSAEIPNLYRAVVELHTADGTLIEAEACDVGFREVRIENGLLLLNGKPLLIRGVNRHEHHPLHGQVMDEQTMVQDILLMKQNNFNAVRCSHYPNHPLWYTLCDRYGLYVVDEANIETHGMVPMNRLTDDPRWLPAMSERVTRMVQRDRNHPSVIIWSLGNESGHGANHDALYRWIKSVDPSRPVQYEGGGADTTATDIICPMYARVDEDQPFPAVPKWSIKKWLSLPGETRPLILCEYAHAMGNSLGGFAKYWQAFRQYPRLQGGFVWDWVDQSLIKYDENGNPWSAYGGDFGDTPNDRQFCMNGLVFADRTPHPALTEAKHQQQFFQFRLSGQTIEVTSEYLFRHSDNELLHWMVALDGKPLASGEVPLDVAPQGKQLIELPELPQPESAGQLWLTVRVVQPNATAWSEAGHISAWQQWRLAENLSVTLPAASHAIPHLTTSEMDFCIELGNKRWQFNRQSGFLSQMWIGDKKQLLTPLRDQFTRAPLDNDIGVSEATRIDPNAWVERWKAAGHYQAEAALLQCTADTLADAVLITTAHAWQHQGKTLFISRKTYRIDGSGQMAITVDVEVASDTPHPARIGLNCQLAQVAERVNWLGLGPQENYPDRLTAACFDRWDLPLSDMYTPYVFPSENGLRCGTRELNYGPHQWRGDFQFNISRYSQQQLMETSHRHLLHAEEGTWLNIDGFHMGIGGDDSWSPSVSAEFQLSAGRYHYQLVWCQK

INS1 = test: INS-1E survival protection against cytokine death – cell-based, luminescence, retest, dose response (AID 449756); assay type: functional; details: Rattus norvegicus;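 also: cell death triggered by IL-1 beta plus TNF-alpha plus IFN-gamma mixture; protective hits raise ATP signal compared with cytokine alone wells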
[12] = HEK293 Cytotoxicity Assay Measured in Cell-Based System Using Plate Reader - 7071-01_Inhibitor_Dose_CherryPick_Activity_Set2.; assay type: functional
HEK293 = test: viability loss in HEK293T cells – cell-based, ATP luminescence, cherry-pick samples, cytotoxicity control, dose response (AID 687005); assay type: functional; details: Homo sapiens;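 also: cells exposed to compound for 48 hours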
Vero [13] = test: cells; assay type: functional; details: Chlorocebus sabaeus
Vero [14] = test: cells; assay type: functional, cell-based; details: Chlorocebus sabaeus
NS3 = NS3 (Hepatitis C virus, UniProt A3EZJ3); test: PubChem AID 2173; design: species or system Hepacivirus hominis
NS3, sequence (A3EZJ3 whole entry): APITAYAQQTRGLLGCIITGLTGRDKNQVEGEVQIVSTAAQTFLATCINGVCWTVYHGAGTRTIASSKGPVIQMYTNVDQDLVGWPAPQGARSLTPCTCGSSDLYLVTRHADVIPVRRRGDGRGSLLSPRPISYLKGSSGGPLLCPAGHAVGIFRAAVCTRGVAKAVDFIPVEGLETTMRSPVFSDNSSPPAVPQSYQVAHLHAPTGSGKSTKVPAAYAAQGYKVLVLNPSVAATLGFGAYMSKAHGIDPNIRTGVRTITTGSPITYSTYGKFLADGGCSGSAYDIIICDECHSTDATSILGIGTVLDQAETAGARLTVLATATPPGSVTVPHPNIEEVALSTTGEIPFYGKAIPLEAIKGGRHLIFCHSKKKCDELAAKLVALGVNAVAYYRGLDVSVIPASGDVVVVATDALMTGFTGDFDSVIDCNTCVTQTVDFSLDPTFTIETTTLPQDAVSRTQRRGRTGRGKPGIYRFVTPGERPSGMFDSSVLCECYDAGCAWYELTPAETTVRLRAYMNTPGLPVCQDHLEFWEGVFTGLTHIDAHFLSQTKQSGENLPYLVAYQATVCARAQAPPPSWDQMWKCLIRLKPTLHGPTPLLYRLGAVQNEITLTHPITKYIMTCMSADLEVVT

[15] = target: T1, Apoptotic protease-activating factor 1 (Homo sapiens, UniProt O14727); assay type: functional
T1 sequence (O14727 whole entry): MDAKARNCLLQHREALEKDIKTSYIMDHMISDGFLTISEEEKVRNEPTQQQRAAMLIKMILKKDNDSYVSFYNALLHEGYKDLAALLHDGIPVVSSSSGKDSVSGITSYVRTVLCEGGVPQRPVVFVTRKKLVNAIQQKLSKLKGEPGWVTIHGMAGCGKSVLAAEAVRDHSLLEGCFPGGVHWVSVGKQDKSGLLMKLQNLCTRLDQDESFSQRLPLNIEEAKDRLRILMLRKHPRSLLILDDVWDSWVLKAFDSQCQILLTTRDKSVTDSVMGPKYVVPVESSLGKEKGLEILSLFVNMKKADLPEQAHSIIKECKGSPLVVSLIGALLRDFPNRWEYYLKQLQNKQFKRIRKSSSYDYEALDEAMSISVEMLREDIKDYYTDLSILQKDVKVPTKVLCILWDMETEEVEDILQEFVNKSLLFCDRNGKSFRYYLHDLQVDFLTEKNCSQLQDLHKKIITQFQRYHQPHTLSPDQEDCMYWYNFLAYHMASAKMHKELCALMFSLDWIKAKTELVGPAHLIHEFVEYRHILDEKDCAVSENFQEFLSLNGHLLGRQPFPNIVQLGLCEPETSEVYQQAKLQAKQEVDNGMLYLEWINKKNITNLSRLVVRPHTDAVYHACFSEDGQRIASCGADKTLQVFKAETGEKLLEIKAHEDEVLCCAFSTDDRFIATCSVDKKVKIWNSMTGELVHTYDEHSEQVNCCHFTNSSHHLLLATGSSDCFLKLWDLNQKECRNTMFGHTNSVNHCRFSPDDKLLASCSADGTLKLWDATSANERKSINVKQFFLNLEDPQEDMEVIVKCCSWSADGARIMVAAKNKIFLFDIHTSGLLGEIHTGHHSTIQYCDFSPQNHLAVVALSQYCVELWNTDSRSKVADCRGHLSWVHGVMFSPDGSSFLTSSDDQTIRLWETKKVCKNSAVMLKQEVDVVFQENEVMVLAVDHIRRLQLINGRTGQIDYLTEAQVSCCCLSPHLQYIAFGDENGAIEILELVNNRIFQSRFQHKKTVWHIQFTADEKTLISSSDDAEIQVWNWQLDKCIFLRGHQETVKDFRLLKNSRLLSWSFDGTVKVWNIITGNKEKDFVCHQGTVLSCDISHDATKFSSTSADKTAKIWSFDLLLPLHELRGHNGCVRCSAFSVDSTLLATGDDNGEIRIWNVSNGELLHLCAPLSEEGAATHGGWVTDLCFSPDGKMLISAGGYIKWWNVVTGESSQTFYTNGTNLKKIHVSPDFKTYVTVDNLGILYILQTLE

[16] = target: T2, Probable nicotinate-nucleotide adenylyltransferase (Staphylococcus aureus (strain N315), UniProt P65502); assay type: functional, Staphylococcus aureus subsp. aureus N315;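 as to IC50 Mean: confirmatory dose-response retesting of NadD inhibitor hits first found in an ultra-high-throughput screen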
T2 sequence (P65502 whole entry): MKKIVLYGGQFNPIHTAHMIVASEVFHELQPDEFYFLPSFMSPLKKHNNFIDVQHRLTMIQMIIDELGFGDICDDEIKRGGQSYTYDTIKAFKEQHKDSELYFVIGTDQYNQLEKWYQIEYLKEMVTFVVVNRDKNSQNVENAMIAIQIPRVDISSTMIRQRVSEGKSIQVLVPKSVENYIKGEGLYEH

[17] = target: T3, Sentrin-specific protease 8 (Homo sapiens, UniProt Q96LD8); assay type: functional
T3 sequence (Q96LD8 whole entry): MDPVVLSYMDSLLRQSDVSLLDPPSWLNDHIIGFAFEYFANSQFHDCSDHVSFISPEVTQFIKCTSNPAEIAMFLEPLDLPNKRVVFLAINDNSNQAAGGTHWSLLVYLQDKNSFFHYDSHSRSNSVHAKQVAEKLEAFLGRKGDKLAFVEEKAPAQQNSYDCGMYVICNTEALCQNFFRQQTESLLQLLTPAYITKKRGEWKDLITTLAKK

[18] = target: T3, Sentrin-specific protease 8; assay type: functional; remark: listed apart in the source
[19] = target: T2, Probable nicotinate-nucleotide adenylyltransferase; assay type: functional, Staphylococcus aureus subsp. aureus N315; details: read-out: IC50_Mean
[20] = target: T4, Lysine-specific demethylase 4C (Homo sapiens, UniProt Q9H3R0); test: inhibition of JMJD2C H3K9me3 demethylation – biochemical, DELFIA europium, cherry-picked samples, dose response (AID 488835); assay type: functional
T4 sequence (Q9H3R0 whole entry): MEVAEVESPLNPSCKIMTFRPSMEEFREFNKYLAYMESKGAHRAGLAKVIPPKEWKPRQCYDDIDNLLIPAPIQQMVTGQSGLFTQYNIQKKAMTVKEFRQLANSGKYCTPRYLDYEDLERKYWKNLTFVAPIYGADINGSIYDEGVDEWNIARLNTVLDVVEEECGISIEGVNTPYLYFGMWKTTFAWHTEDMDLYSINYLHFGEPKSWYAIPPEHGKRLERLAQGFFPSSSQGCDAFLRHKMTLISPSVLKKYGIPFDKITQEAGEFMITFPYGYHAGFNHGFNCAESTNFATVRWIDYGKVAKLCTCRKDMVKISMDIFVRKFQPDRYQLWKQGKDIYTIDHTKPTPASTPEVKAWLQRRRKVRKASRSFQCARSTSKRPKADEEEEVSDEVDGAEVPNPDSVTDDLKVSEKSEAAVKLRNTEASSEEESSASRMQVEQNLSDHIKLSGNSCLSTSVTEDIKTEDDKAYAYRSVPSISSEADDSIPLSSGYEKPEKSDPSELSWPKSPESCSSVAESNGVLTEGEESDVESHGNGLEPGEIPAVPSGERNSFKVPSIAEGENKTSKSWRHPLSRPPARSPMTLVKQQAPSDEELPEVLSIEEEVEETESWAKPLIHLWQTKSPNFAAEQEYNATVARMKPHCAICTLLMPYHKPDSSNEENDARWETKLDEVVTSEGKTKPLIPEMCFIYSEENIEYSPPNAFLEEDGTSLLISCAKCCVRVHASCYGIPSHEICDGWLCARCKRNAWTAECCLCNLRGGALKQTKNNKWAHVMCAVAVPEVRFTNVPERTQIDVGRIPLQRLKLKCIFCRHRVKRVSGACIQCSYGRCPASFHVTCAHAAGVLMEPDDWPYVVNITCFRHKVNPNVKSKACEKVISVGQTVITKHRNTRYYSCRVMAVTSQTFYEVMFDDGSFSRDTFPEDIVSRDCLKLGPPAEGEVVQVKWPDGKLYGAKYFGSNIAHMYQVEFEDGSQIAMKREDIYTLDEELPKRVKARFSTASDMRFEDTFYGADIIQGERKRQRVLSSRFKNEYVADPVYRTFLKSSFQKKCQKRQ

[21] = glucagon-like peptide-1 release potency in STC-1, concentration-response, half-maximal inhibitory concentration in the STC-1 line (AID 1117345); assay type: functional, cell-based
[22] = Potency on glucagon-like peptide 1 release, dose-response in NCI-H716 cell line, half maximal inhibitory concentration (AID 1117344); assay type: functional, cell-based
[23] = IC50 of insulin release inhibition, rat insulinoma INS-1E line, 5 mM glucose, cell-based (AID 1117331); assay type: functional
[24] = toxicity toward immortalized ovarian surface epithelium – cell-based, plate reader, dry powder samples, cytotoxicity control for PAX8 inhibitor project, dose response (AID 743045); assay type: functional
[25] = IC50 of Artemis nuclease activity blockers – biochemical, fluorescence intensity, dose response (AID 720701); assay type: functional;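 also: Artemis endonuclease enzyme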
Vero [26] = test: viability of Vero cells under compound – cytotoxicity control for flavivirus capping enzyme inhibitors (AID 588742); assay type: functional; details: Chlorocebus sabaeus

COUP transcription factor 2, sequence (P24468 whole entry): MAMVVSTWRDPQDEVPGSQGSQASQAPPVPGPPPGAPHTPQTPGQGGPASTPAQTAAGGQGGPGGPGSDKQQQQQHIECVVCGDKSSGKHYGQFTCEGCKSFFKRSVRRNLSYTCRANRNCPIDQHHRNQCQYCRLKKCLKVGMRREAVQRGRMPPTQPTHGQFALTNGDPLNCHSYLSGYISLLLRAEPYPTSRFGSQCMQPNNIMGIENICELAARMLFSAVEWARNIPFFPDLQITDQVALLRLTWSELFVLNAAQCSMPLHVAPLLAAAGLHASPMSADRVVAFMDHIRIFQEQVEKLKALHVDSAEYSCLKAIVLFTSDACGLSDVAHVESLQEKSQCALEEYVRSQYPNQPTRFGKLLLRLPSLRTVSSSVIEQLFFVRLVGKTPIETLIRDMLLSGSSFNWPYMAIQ

Which IC50 [1] does the source give for `COc1ccc(NC(=O)C2Cc3c(-c4ccc5c(c4)OCO5)ccnc3O2)cc1OC` (configuration not stated) here?
Its IC50 is 8.73 µM (active).

With `Fc1cccc(CN2C[C@@H]3N[C@H](C2)[C@@H]3c2ccc(-c3ccccc3)cc2)c1` as the compound, how does the AC50 [2] read?
The AC50 was 15.1 µM (active).

And the AC50 [3]?
The AC50 was 7.52 µM (active).

What about the AC50 [4] of the same compound?
Its AC50 is 31 µM (active).

And the AC50 [5]?
Its AC50 is 27.7 µM (active).

And the AC50 [6]?
Its AC50 is 39.9 µM (active).

Which IC50 [7] does the source give for `O=C(CSCc1ccccc1)NNC(=S)Nc1cccc(Cl)c1Cl` here?
Its IC50 is > 122 µM (inactive).

With `COc1cc(/C=N/NC(=O)c2c(C)nc3ccc(Cl)cn23)cc(OC)c1OC` as the compound, how does the EC50 (Kallikrein-7) read?
The EC50 was 29 µM (inactive).

For `OC(c1ccccc1)c1nc(-c2cnc3ccccc3c2)cs1` (configuration not stated), which EC50 [8] is on record?
Its EC50 is > 67.6 µM (inactive).

With `CC/N=c1\scc(-c2ccc3c(c2)NC(=O)CO3)n1N=C1CCCC1` as the compound, how does the EC50 [9] read?
Its EC50 is > 160 µM (inactive).

And the EC50 [10]?
The EC50 was 2.31 µM (active).

What about the IC50 [1] of the same compound?
Its IC50 is 8.75 µM (active).

Which AC50 (Paired box protein Pax-8) does the source give for `O=C(Nc1ccc(C(F)(F)F)cc1)N1C[C@@H]2N[C@H](C1)[C@@H]2c1ccc(-c2ccccc2)cc1` here?
Its AC50 is 8.62 µM (active).

And the AC50 [11]?
The AC50 was 33.8 µM (active).

And the AC50 [3]?
Its AC50 is 9.06 µM (active).

Which IC50 (Beta-galactosidase) does the source give for `COc1ccc(OCC(=O)N2CCN(C/C=C/c3ccccc3)CC2)cc1` here?
The IC50 was > 80 µM (inactive).

For `Cc1cc(OCC(=O)N(C)Cc2ccccc2)ccc1Cl`, which IC50 (Beta-galactosidase) is on record?
The IC50 was > 80 µM (inactive).

What about the AC50 (INS1) of the same compound?
Its AC50 is > 260 µM (inactive).

For `Cc1ccc(S(=O)(=O)N(C)C[C@@H]2Oc3ccc(NS(=O)(=O)c4ccc(Cl)cc4)cc3CC(=O)N([C@@H](C)CO)C[C@@H]2C)cc1`, which AC50 [12] is on record?
Its AC50 is 28 µM (active).

And the AC50 (HEK293)?
Its AC50 is 28 µM (active).

What does the source list for `CCCCOc1ccccc1C(=O)NNC(=S)NC(=O)c1ccccc1[N+](=O)[O-]`?
EC50 [9]: > 150 µM (inactive); CC50 (Vero [13]): 15.8 µM (active); EC50 [10]: > 38 µM (not active); IC50 (Vero [14]): > 12.5 µM (active); IC50 (NS3): 12.2 µM (not active); IC50 [7]: 20.8 µM (inactive)

What does the source list for `Cc1[nH][nH]c(=O)c1C(c1c(C)[nH][nH]c1=O)c1cn(Cc2cccc3ccccc23)c2ccccc12`?
IC50 [15]: 19.3 µM (active); IC50 [16]: 6.89 µM (active); IC50 [17]: 5.32 µM (active); IC50 [18]: 3.36 µM (active); IC50 [19]: 14.7 µM (active); AC50 [20]: 11.4 µM (active)

For `CSc1ccc(C2NC(=O)c3ccccc3N2)cc1` (configuration not stated), which EC50 (Kallikrein-7) is on record?
Its EC50 is > 69.5 µM (inactive).

What does the source list for `Cc1c(N)cccc1C(F)(F)F`?
IC50 [21]: > 40 µM (inactive); IC50 [22]: > 40 µM (inactive); IC50 [23]: > 33.3 µM (inactive)

With `CC(C)CC#Cc1ccc2c(c1)O[C@@H](CN(C)Cc1ccncc1)[C@H](C)CN([C@H](C)CO)S2(=O)=O` as the compound, how does the AC50 (Paired box protein Pax-8) read?
Its AC50 is 4.41 µM (active).

What about the AC50 [24] of the same compound?
Its AC50 is 48.9 µM (active).

What about the AC50 [4] of the same compound?
The AC50 was 40.7 µM (active).

And the AC50 [6]?
Its AC50 is 32.6 µM (active).

What does the source list for `Cc1n[nH]c(O)c1C(c1c(C)n[nH]c1O)c1cn(Cc2cccc3ccccc23)c2ccccc12`?
IC50 [25]: 12.5 µM (active); CC50 (Vero [26]): > 40 µM (active)
